Results on 13 molecules are retold here after patent publication US10683311B2 (priority 2015, dated 2020).

By logP is commonly meant the decadic logarithm of the partition coefficient of the neutral form, usually between octanol and water. Lower therefore signals a more hydrophilic compound. Broadly, the inhibition is the drop in the measured response relative to a control, in per cent. What is called chromatographic logP is lipophilicity estimated from chromatographic retention.

One data set relates to Pyricularia oryzae. In words: microbe, parasite or virus in culture. It is filed as cell-based. Conditions: for Efficacy: inhibition of fungal growth, liquid culture; for inhibition at 20 ppm: Pyricularia oryzae, 120 h, read-out: efficacy (inhibition of fungal growth).
Data set [1] is described as follows: log P by HPLC on reversed-phase column (C18), EEC Directive 79/831 Annex V.A8. The data set is classed as physicochemical. Conditions: for chromatographic logP: reversed-phase HPLC column (C18). Summed up:
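Retention time on C18 reversed-phase HPLC at 40 °C, gradient 10% to 95% acetonitrile with either 0.1% aqueous formic acid (Method A) or 0.001 molar ammonium acetate (Method B). Calibrated with unbranched alkan-2-ones (C3–C16) of known log P by linear interpolation between successive alkanones.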

The test system of the next data set is Botrytis cinerea. In words: Example B: in vivo preventive test on Botrytis cinerea (grey mould). Conditions: evaluated 4 to 5 days after inoculation. On the procedure: Example B: In Vivo Preventive Test on Botrytis cinerea (Grey Mould)
(§1) • Solvent: 5% by volume of dimethyl sulfoxide • 10% by volume of acetone • Emulsifier: 1 μL of Tween® 80 per mg of active ingredient
The tested compounds were made soluble and homogenized in a mixture of dimethyl sulfoxide/acetone//Tween® 80 and then diluted in water to the desired concentration.
The young plants of gherkin were treated by spraying the tested compounds prepared as described above. Control plants were treated only with an aqueous solution of acetone/dimethyl sulfoxide/Tween® 80.
After 24 hours, the plants were contaminated by spraying the leaves with an aqueous suspension of Botrytis cinerea spores. The contaminated gherkin plants were incubated for 4 to 5 days at 17° C. and at 90% relative humidity.
The test was evaluated 4 to 5 days after the inoculation. 0% means an efficacy which corresponds to that of the control plants while an efficacy of 100% means that no disease is observed.

For a further data set, the system named is Septoria tritici. Briefly: Example D: in vivo preventive test on Septoria tritici (leaf spot on wheat). On the procedure: Example D: In Vivo Preventive Test on Septoria tritici (Leaf Spot on Wheat)
as §1
The active compounds were made soluble and homogenized in a mixture of dimethyl sulfoxide/acetone//Tween® 80 and then diluted in water to the desired concentration.
The young plants of wheat were treated by spraying the active compound prepared as described above. Control plants were treated only with an aqueous solution of acetone/dimethyl sulfoxide/Tween® 80.
After 24 hours, the plants were contaminated by spraying the leaves with an aqueous suspension of Septoria tritici spores. The contaminated wheat plants were incubated for 72 hours at 18° C. and at 100% relative humidity and then for 21 days at 20° C. and at 90% relative humidity.
The test was evaluated 24 days after the inoculation. 0% means an efficacy which corresponds to that of the control plants while an efficacy of 100% means that no disease is observed.

Where [2] appears, read: Method B: 40° C., 0.001 molar ammonium acetate solution in water and acetonitrile.
The mark [3] stands for this setting: dose 500 ppm, preventive spray on gherkin plants.
Where [4] appears, read: dose 0.06 ppm, 5 days incubation.
The mark [5] stands for this setting: dose 0.25 ppm, 5 days incubation.
Setting [6] is: Method A: 40° C., 0.1% aqueous formic acid and acetonitrile.
Setting [7] is: 4 ppm of active ingredient, 5 days incubation.
Where [8] appears, read: 500 ppm of active ingredient, gherkin plants, preventive.

Consider `Cc1nc2c(F)c(F)ccc2cc1Oc1cccc(F)c1[Si](C)(C)C` [I.027], for which the Efficacy was determined as 85% in the data set with Pyricularia oryzae (1 ppm, 5 days incubation); 94% in the data set with Pyricularia oryzae (4 ppm, 5 days incubation); 100% with Pyricularia oryzae (20 ppm, 5 days incubation); 92% in the data set on Botrytis cinerea (setting [3]). The logP in data set [1] (setting [2]) was determined as 5.54.

`Cc1nc2c(F)c(F)ccc2cc1Oc1ccccc1C[Si](C)(C)C` [CMP1, 7,8-difluoro-2-methyl-3-{2-[(trimethylsilyl)methyl]phenoxy}quinoline, reference compound]: the Efficacy is reported as 1% in the data set on Pyricularia oryzae (setting [4]); 56% in the data set on Pyricularia oryzae (setting [5]); “no protection” in the data set with Septoria tritici (500 ppm of active ingredient, evaluated 24 days after inoculation); 0% in the data set with Septoria tritici (Table D, dose 500 ppm). In the data set with Pyricularia oryzae (dose of 0.25 ppm or 0.06 ppm), the “efficacy (inhibition of fungal growth)” value is “much lower efficacy”.

For the molecule `Cc1nc2c(F)c(F)ccc2cc1Oc1ccccc1[Si](C)(C)O` [I.026, {2-[(7,8-difluoro-2-methylquinolin-3-yl)oxy]phenyl}(dimethyl)silanol], in the data set with Pyricularia oryzae, the inhibition at 20 ppm was in the range of 90 to 100%. In addition, the chromatographic logP in data set [1] (setting [6]) is 3.51.

On to `C[SiH](c1ccccc1)c1c(F)cccc1Oc1cc2ccccc2nc1Cl` (stereo not drawn) [I.062, 2-chloro-3-{3-fluoro-2-[methyl(phenyl)silyl]phenoxy}quinoline], for which the inhibition at 20 ppm in the data set with Pyricularia oryzae is 90 to 100%. This molecule showed a chromatographic logP in data set [1] (setting [6]) of 5.78.

Regarding `C[Si](C)(C)c1c(F)cccc1Oc1ccnc2cccnc12` [CMP4, 4-[3-fluoro-2-(trimethylsilyl)-phenoxy]-1,5-naphthyridine, reference compound], the Efficacy in the data set on Pyricularia oryzae (1 ppm, 5 days incubation) is 0%; in the data set with Pyricularia oryzae (4 ppm, 5 days incubation), 11%; in the data set on Pyricularia oryzae (20 ppm, 5 days incubation) it was 44%; in the data set with Botrytis cinerea (setting [8]), “no efficacy”; with Botrytis cinerea (setting [3]), 0%. Further, the “efficacy (inhibition of fungal growth)” value in the data set with Pyricularia oryzae (setting [7]) is listed as “much lower efficacy”.

On to `Cc1nc2ccccc2cc1Oc1ccccc1[Si](C)(C)C` [I.047, 2-methyl-3-[2-(trimethylsilyl)phenoxy]quinoline], for which the inhibition at 20 ppm in the data set with Pyricularia oryzae is 90 to 100%. Besides, the chromatographic logP in data set [1] (setting [6]) was determined as 4.85.

For the molecule `C[Si]1(c2c(F)cccc2Oc2cnc3ccccc3c2)CCC1` [I.008, 3-[3-fluoro-2-(1-methylsiletan-1-yl)phenoxy]quinoline], in the data set on Pyricularia oryzae, the inhibition at 20 ppm lay in the range of 90 to 100%. Further, the chromatographic logP in data set [1] (setting [6]) is 5.39.

As to `Cc1nc2c(F)c(F)ccc2cc1Oc1ccccc1[Si](C)(C)C` [I.024], the Efficacy with Pyricularia oryzae (setting [4]) is 89%; in the data set on Pyricularia oryzae (setting [5]) it was 96%; in the data set with Septoria tritici (Table D, dose 500 ppm), 81%. The “efficacy (inhibition of fungal growth)” value in the data set with Pyricularia oryzae (dose of 0.25 ppm or 0.06 ppm) is on record as “at least 80%”. In addition, the logP in data set [1] (setting [6]) was found to be 6.01.

Consider `C[Si](C)(C)c1c(F)cccc1Oc1cnc2cccnc2c1` [I.116], for which the Efficacy in the data set on Pyricularia oryzae (1 ppm, 5 days incubation) is on record as 90%; in the data set with Pyricularia oryzae (4 ppm, 5 days incubation), 100%; in the data set with Pyricularia oryzae (20 ppm, 5 days incubation), 100%; in the data set on Botrytis cinerea (setting [3]), 73%. Besides, the log partition coefficient (logP) in data set [1] (setting [6]) is on record as 4.15.

For the molecule `Cc1nc2c(F)c(F)ccc2cc1Oc1cccc(F)c1[Si](C)(C)F` [I.032, 7,8-difluoro-3-{3-fluoro-2-[fluoro(dimethyl)silyl]phenoxy}-2-methylquinoline], the inhibition at 20 ppm in the data set on Pyricularia oryzae lay within 90 to 100%. In data set [1] (setting [6]), this molecule gave a chromatographic logP of 4.75.

As for `C[Si](C)(C)c1cc(F)ccc1Oc1cnc2c(Cl)cccc2c1` [I.019], the Efficacy came to 45% in the data set with Pyricularia oryzae (1 ppm, 5 days incubation); 98% in the data set on Pyricularia oryzae (4 ppm, 5 days incubation); 97% in the data set on Pyricularia oryzae (20 ppm, 5 days incubation). Besides, in data set [1] (setting [6]), the logP turned out to be 5.62.

For `C[Si]1(C)OCc2cccc(Nc3cnc4ccccc4c3)c21` [I.010, N-(1,1-dimethyl-1,3-dihydro-2,1-benzoxasilol-7-yl)quinolin-3-amine], the inhibition at 20 ppm with Pyricularia oryzae lay in the range of 80 to 89%. Also, the chromatographic logP in data set [1] (setting [2]) stood at 3.15.

Take `Cc1cc(Oc2cccc(F)c2[Si](C)(C)C)c2ccc(F)c(F)c2n1` [CMP3, 7,8-difluoro-4-[3-fluoro-2-(trimethylsilyl)phenoxy]-2-methylquinoline, reference compound]: the Efficacy in the data set with Pyricularia oryzae (1 ppm, 5 days incubation) is on record as 0%; with Pyricularia oryzae (4 ppm, 5 days incubation), 25%; in the data set on Pyricularia oryzae (20 ppm, 5 days incubation), 96%; with Botrytis cinerea (setting [8]) it was “no efficacy”; in the data set on Botrytis cinerea (setting [3]) it was 0%. Further, the “efficacy (inhibition of fungal growth)” value in the data set with Pyricularia oryzae (setting [7]) was “much lower efficacy”.
